Source: PMC10580383, “Development of Melanocortin 4 Receptor Agonists by Exploiting Animal-Derived Macrocyclic, Disulfide-Rich Peptide Scaffolds” (ACS Pharmacology & Translational Science, 2023)
Where a SMILES comes first, the peptide text is derived from it. Bridges are numbered along the chain shown (N, C = ends). [ ]: non-standard residue; d: D form.

What was measured:
MC4R over MC1R and MC3R = settings: Figure S6
human MC4R = experiment: pGlo cAMP accumulation assay; assay type: cell-based; settings: cells transiently expressing human MC4R, 1 and 10 μM, three independent experiments in technical triplicate
Method: (§1) Following functional analysis at MC4R, we were intrigued to know how selective Pr4LP1 and Ar3LP1 were for MC4R vs other melanocortin receptors.
(§2) Figure 6 Selectivity determination of Pr4LP1 and Ar3LP1 peptides at MC4R vs MC1R and MC3R. […] Data (not normalized) are represented as mean ± SEM from three independent experiments performed in technical triplicate.
(§3) Cells transiently expressing human MC1R, MC3R, or MC4R were incubated for 24 h. Afterward all contents of each well were carefully removed, and cells were then equilibrated in cAMP buffer [1× HBSS, 24 mM HEPES, 0.1% (w/v) BSA, 3.96 mM NaHCO3, 1 mM MgSO4, 1.3 mM CaCl2 dihydrate], supplemented with firefly D-luciferin free acid (0.45 mg/mL) (NanoLight Technology). 90 μL of cAMP buffer was added to all wells, and the 96-well plate was then incubated (28 °C, 1 h). Bioluminescence was measured using the CLARIOstar Plus Plate Reader (BMG LabTech). Prior to injecting the treatment ligands, approximately 5–10 basal readings were performed until stabilization was reached. Peptide ligands (10 μL) were added to the well. Bioluminescence was measured for a total of 30 cycles (1 min per cycle, 1 s integration time, without filter, a fixed gain of 3000, and autofocus).

human MC3R = experiment: pGlo cAMP accumulation assay; assay type: cell-based; settings: cells transiently expressing human MC3R, up to 10 μM, three independent experiments in technical triplicate
Method: as §1, §2, §3

human MC1R = experiment: pGlo cAMP accumulation assay; assay type: cell-based; settings: cells transiently expressing human MC1R, up to 10 μM, three independent experiments in technical triplicate
Method: as §1, §2, §3

[1] = biological target: T1, mouse melanocortin 4 receptor (MC4R) (Mus musculus, UniProt P56450); experiment: cAMP second messenger quantification assay (Cisbio HTRF cAMP Gs kit); assay type: cell-based; settings: for Emax: HEK293, read-out: efficacy cAMP Emax ± SD
T1 construct: expressed in transfected cells; host or cells: HEK293 / HEK293T, transient transfection
T1 sequence (P56450 whole entry): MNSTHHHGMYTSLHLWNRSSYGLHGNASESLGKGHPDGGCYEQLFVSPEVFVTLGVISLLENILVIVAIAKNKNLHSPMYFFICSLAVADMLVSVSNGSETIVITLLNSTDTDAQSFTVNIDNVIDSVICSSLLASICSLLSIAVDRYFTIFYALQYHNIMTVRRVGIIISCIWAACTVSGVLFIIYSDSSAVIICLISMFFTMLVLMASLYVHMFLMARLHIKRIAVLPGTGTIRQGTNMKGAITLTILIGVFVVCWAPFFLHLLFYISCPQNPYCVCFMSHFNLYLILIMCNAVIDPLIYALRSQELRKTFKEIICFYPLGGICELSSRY
Method: Figure 3 Functional cAMP assay of synthesized peptide analogues targeting MC4R. The accumulation of adenylyl cyclase-catalyzed cAMP of (A) tachylplesin-1-like peptides (Ta1LPs, green), (B) protegrin-4-like peptides ([…], pink), (C) arenicin-3-like peptides (Ar3LPs, orange), and (D) gomesin-like peptides (GoLPs, blue) was measured in HEK293 cells transiently expressing mouse melanocortin 4 receptor (MC4R). […] Data are from three independent experiments and are shown as mean ± SEM.
Assays were performed on cells transiently expressing mouse MC4R-EGFP. BamHI and SacI restriction sites were used to clone mouse MC4R N-terminally into a pEGFP-N1 vector. Peptide ligands were assayed for […] in a 384-well format and triplicate according to the Cisbio protocol. Briefly, 5 μL containing 10,000 cells per well was incubated with 5 μL of peptide solutions prepared 2× in 1× stimulation buffer. Following an incubation of peptide ligands at 37 °C for 30 min, d2-labeled cAMP and cryptate-labeled antibody (5 μL of each) were added to the mixture and further incubated for at least 1 h at room temperature. Subsequently, cAMP levels were quantified on a Flexstation 3 (Molecular Devices, San Jose, USA) using homogeneous time-resolved fluorescence resonance energy transfer and the ratio 665/620 nm. Samples were measured in technical triplicates.
Data analysis was performed with GraphPad Prism (GraphPad Software, San Diego). The potency (EC50) and maximum efficacy (Emax) values of peptide ligands were derived from functional data fitted to three- or four-parameter nonlinear regression curves constrained to a bottom of zero.

mouse MC4R-EGFP = experiment: kinetic BRET β-arrestin-2 recruitment assay (MC4R-EGFP / β-arrestin-2-nanoluciferase); assay type: cell-based; settings: ligand 10 μM; HEK293 cells, MC4R-EGFP and β-arrestin-2-NLuc; mean ligand-induced BRET from 312 to 2433 s, NDP-α-MSH set as 100; three independent experiments
Method: Considering the physiological relevance of β-arrestins and their critical role in orchestrating MC4R signaling, we measured β-arrestin-2 recruitment in a kinetic bioluminescence resonance energy transfer (BRET) assay. We screened at a ligand concentration of 10 μM in HEK293 cells transiently expressing MC4R coupled to EGFP, and β-arrestin-2 fused to nanoluciferase. […] By contrast, Pr4LP1, Ar3LP1, Ar3LP2, and GoLP1 recruited β-arrestin-2 with greater efficiencies (>130%) than NDP-α-MSH (Figures 4 and S5B,C).
Figure 4 β-Arrestin-2 recruitment of designed MC4R peptide analogues. BRET assay was used to measure the transient interaction of MC4R-EGFP with β-arrestin-2-nanoluciferase (NLuc) in HEK293 cells over time following cell treatment with 10 μM of tachyplesin-1-like peptides (Ta1LPs, green), protegrin-4-like peptides (Pr4LPs, pink), arenicin-3-like peptides (Ar3LPs, orange), and gomesin-like peptides (GoLPs, blue). Relative BRET quantification was determined by calculating the mean value of ligand-induced BRET for each peptide ligand from 312 to 2433 s which was then divided by the mean value of ligand-induced BRET of NDP-α-MSH set as 100. Data are shown as mean ± SEM from three independent experiments.
BRET assay was performed as previously described.[32] Briefly, β-arrestin-2-nano luciferase and mouse MC4R-EGFP were cotransfected in a 1:10 ratio. 16 h post-transfection, 50,000 cells in 100 μL of phenol red-free DMEM with 10% FBS per well were transferred into white clear bottom 96-well plates and incubated overnight. On the day of the assay, cells were incubated for 1 h at 37 °C in phenol red- and serum-free DMEM. Furimazine (diluted 1:50) and peptide ligands (4×) were prepared in Hank’s balanced salt solution (HBSS), respectively. Prior to establishing the baseline and measuring kinetic BRET, furimazine was incubated for 5 min at 37 °C. The ability of peptide ligands to induce β-arrestin-2 recruitment was assessed by measuring light emissions for EGFP (510 nm) and nanoluciferase (460 nm) over 35 min using Flexstation 3 (Molecular Devices, San Jose, USA). The BRET ratio was calculated as emission EGFP (510 nm)/emission nanoluciferase (460 nm). The ligand-induced BRET was calculated by subtracting […].

Row | SMILES | selectivity in recruiting β-arrestin-2 (MC4R over MC1R and MC3R) | cAMP response at MC4R (RLU) (human MC4R) | cAMP response at MC3R (RLU) (human MC3R) | cAMP response at MC1R (RLU) (human MC1R) | EC50 [1] [nM] | Emax [1] [%] | BRET efficacy of β-arrestin-2 recruitment relative to NDP-α-MSH (mouse MC4R-EGFP) [%]
1 | CC(C)C[C@H](NC(=O)[C@H](CCCNC(=N)N)NC(=O)CNC(=O)CNC(=O)[C@@H](N)CCCNC(=N)N)C(=O)N[C@H]1CSSC[C@@H](C(=O)N[C@H](C(=O)NCC(=O)N[C@@H](CCCNC(=N)N)C(N)=O)C(C)C)NC(=O)[C@H](Cc2ccccc2)NC(=O)[C@@H]2CSSC[C@H](NC(=O)[C@H](Cc3ccc(O)cc3)NC1=O)C(=O)N1CCC[C@H]1C(=O)N[C@@H](Cc1c[nH]cn1)C(=O)N[C@H](Cc1ccccc1)C(=O)N[C@@H](Cc1c[nH]cn1)C(=O)N[C@@H](Cc1c[nH]c3ccccc13)C(=O)N2 [Pr4LP1] (H-RGGRLCYCPH[dF]HWCFCVGR-NH2; disulfide 6-16, 8-14) | selective for MC4R over MC1R and MC3R | activate the receptor | no response | no response | 3.98 | 96 ± 3 | > 130
2 | CC(C)[C@@H]1NC(=O)[C@H](Cc2ccc(O)cc2)NC(=O)[C@H](Cc2c[nH]c3ccccc23)NC(=O)[C@@H](NC(=O)[C@H](Cc2ccccc2)NC(=O)CN)CSSC[C@@H](C(=O)N[C@@H](CC(N)=O)C(N)=O)NC(=O)[C@H](CCCNC(=N)N)NC(=O)[C@H](CCCNC(=N)N)NC(=O)[C@H](Cc2ccc(O)cc2)NC(=O)[C@@H]2CSSC[C@H](NC1=O)C(=O)N1CCC[C@H]1C(=O)N[C@@H](Cc1c[nH]cn1)C(=O)N[C@H](Cc1ccccc1)C(=O)N[C@@H](Cc1c[nH]cn1)C(=O)N[C@@H](Cc1c[nH]c3ccccc13)C(=O)N2 [Ar3LP1] (H-GFCWYVCPH[dF]HWCYRRCN-NH2; disulfide 3-17, 7-13) | selective for MC4R over MC1R and MC3R | activate the receptor | no response | no response | 1 | 98 ± 4 | > 130
